Assay results: patent publication US7842671B1, “Peptidomimetic inhibitors of STAT activity and uses thereof” (University of South Florida, priority 2003, dated 2010)

Assays:
Stat3 [1] = molecular target: T1, Stat3 (Homo sapiens, UniProt P40763); assay type: cell-based
T1 construct: endogenous in cells; host or cells: A549, MDA-MB-231, MDA-MB-435, MDA-MB-468
Method: (§1) Nuclear extract preparation and gel shift assays. Nuclear extracts were prepared from cell lines and used for electrophoretic mobility shift assay (EMSA) as previously described (Garcia, R. et al. (1997); Yu, C. L. et al. (1995); Turkson, J. et al. (1998)). In some cases, cells were pre-treated with peptidomimetics for the indicated times (12-48 h) prior to harvesting for nuclear extract preparation. In other studies, nuclear extracts were pre-incubated with peptidomimetics for 30 min at room temperature prior to incubation with radiolabeled probe. The ^32P-radiolabeled oligonucleotide probes used are hSIE (high affinity sis-inducible element, m67 variant, 5′-[…]-3′) (SEQ ID NO. 3) that binds both Stat1 and Stat3 (Garcia, R. et al. (1997); Wagner B. J. et al. (1990)) and MGFe (mammary gland factor element from the bovine β-casein gene promoter, 5′-[…]-3′) (SEQ ID NO. 4) that binds Stat1 and Stat5 (Gouilleux, F. et al. (1995); Seidel, H. M. et al. (1995)).

Stat3 [2] = molecular target: T2, Stat3 (Mus musculus, UniProt P42227); assay type: cell-based; design: nuclear extracts prepared from v-Src-transformed NIH3T3/v-Src; endogenous in cells; host or cells: NIH3T3/v-Src
Method: as §1

[3] = tested on: Stat1:Stat1 and Stat3:Stat3 dimers; assay: Dissociation-reassociation analysis of pooled Sf-9 lysates by EMSA; assay type: biochemical; details: 30 min pre-treatment, 30-300 μM PY*LKTK or 3-1000 μM ISS 610, hSIE probe
Method: (§2) Cytosolic extract preparation and luciferase assays. Cytosolic extract preparation from fibroblasts and luciferase assays were previously described (Turkson, J. et al. (1998); Turkson, J. et al. (1999)). Briefly, after two washes with PBS and equilibration for 5 min with 0.5 ml PBS-0.5 mM EDTA, cells were scraped off the dishes and the cell pellet was obtained by centrifugation (4,500×g, 2 min, 4° C.). Cells were resuspended in 0.4 ml of low-salt HEPES buffer (10 mM HEPES (pH 7.8), 10 mM KCl, 0.1 mM EGTA, 0.1 mM EDTA, 1 mM phenylmethylsulfonyl fluoride, and 1 mM dithiothreitol) for 15 min, lysed by the addition of 20 μl of 10% Nonidet P-40 (NP-40), and centrifuged (10,000×g, 30 s, 4° C.) to obtain the cytosolic supernatant, which was used for luciferase assays (Promega) measured with a luminometer. Cytosolic lysates containing activated Stat3 or Stat1 that were used for dissociation-reassociation analysis were prepared from baculovirus-infected Sf-9 insect cells as previously described (Turkson, J. et al. (2001); Zhang, Y. et al. (2000)). Briefly, cultured dishes of Sf-9 cells were washed twice with ice-cold 1×PBS and then PBS containing 1 mM sodium orthovanadate.

[4] = tested on: Stat3-independent luciferase reporter, pRLSRE; assay type: cell-based; details: 1 mM, Src-transformed mouse cells
Excerpt: (§3) Plasmids. The Stat3 reporter, pLucTKS3, driving expression of the firefly luciferase gene and the Stat3-independent plasmid, pRLSRE, containing two copies of the serum response element (SRE) from the c-fos promoter (Turkson, J. et al. (1998); Zhang, Y. et al. (2000)) that drives renilla luciferase gene (Promega; Madison, Wis.) expression, have been previously described (Turkson, J. et al. (2001); Turkson, J. et al. (1999)).
as §2, with “Cytosolic lysates containing activated Stat3 or Stat1 that were used for dissociation-reassociation analysis were prepared from baculovirus-infected Sf-9 insect cells as previously described (Turkson, J. et al. (2001); Zhang, Y. et al. (2000)). Briefly, cultured dishes of Sf-9 cells were washed twice with ice-cold 1×PBS and then PBS containing 1 mM sodium orthovanadate.” left out

[5] = tested on: Stat3-dependent luciferase reporter, pLucTKS3; assay type: cell-based; details: 1 mM, Src-transformed mouse cells
Excerpt: as §3
as §2, with “Cytosolic lysates containing activated Stat3 or Stat1 that were used for dissociation-reassociation analysis were prepared from baculovirus-infected Sf-9 insect cells as previously described (Turkson, J. et al. (2001); Zhang, Y. et al. (2000)). Briefly, cultured dishes of Sf-9 cells were washed twice with ice-cold 1×PBS and then PBS containing 1 mM sodium orthovanadate.” left out

NIH3T3/v-Src [6] = assay: Apo-BrdU labeling and flow cytometry for apoptotic cells; assay type: cell-based, mouse; details: 48 h
Method: (§4) Cell proliferation, soft-agar growth and Apo-BrdU labeling studies. Proliferating fibroblasts and human tumor cells were counted by phase-contrast microscopy for viable cells (using tyrpan blue exclusion). Colony formation assays in six-well dishes and quantification of colonies by iodonitrotetrazolium violet have been previously described (Turkson, J. et al. (1999)). Treatment of cells with inhibitors was initiated 1 day after seeding cells by adding 75 μl of medium with or without inhibitor, and repeated every two to three days. Apoptosis was measured by Apo-BrdU labeling and following the supplier's (PharMingen; San Diego, Calif.) instructions.
(§5) Because one of the functions of Stat3 is to protect transformed or tumor cells from apoptosis (Catlett-Falcone, R. et al. (1999b); Epling-Burnette, P. K. et al. (2001); Grandis, J. R. et al. (2000); Bowman, T. et al. (2000b); Bromberg, J. F. et al. (1999)), the ability of peptidomimetics of the invention (and PY*LKTK-MTS for comparison) (SEQ ID NO. 1) to induce apoptosis in Stat3-dependent transformed fibroblasts was evaluated. Viral Src-transformed NIH3T3/v-Src fibroblasts were treated with or without compounds for 48 h. Treated cells were then labeled with Apo-BrdU (PharMingen; San Diego, Calif.) for detection of DNA breaks.

NIH3T3 [7] = assay: as above; assay type: cell-based, mouse; details: NIH3T3, 1 mM, 48 h, flow cytometry
Method: as §4, §5

NIH3T3/v-Ras = assay type: cell-based, mouse; details: 1 mM
Method: as §4
(§6) Stat3 has an essential role in cell proliferation, and constitutively-active Stat3 is required for growth of transformed and tumor cells that harbor aberrant Stat3 signaling. Studies were performed to determine the effects of the peptidomimetic-mediated inhibition of Stat3 on cell proliferation using trypan blue exclusion for viable cell counts.

NIH3T3/v-Src [8] = assay type: cell-based, mouse; details: 1 mM, four days
Method: as §4, §6

NIH3T3 [9] = assay type: cell-based, mouse; details: 1 mM, normal NIH3T3 cells
Method: as §4, §6

Stat3 [10] = molecular target: T2, Stat3; assay type: cell-based; design: nuclear extracts (prepared from epidermal growth factor (EGF)-stimulated fibroblasts); endogenous in cells; host or cells: NIH3T3 fibroblasts stimulated with EGF

T1 sequence (P40763 whole entry): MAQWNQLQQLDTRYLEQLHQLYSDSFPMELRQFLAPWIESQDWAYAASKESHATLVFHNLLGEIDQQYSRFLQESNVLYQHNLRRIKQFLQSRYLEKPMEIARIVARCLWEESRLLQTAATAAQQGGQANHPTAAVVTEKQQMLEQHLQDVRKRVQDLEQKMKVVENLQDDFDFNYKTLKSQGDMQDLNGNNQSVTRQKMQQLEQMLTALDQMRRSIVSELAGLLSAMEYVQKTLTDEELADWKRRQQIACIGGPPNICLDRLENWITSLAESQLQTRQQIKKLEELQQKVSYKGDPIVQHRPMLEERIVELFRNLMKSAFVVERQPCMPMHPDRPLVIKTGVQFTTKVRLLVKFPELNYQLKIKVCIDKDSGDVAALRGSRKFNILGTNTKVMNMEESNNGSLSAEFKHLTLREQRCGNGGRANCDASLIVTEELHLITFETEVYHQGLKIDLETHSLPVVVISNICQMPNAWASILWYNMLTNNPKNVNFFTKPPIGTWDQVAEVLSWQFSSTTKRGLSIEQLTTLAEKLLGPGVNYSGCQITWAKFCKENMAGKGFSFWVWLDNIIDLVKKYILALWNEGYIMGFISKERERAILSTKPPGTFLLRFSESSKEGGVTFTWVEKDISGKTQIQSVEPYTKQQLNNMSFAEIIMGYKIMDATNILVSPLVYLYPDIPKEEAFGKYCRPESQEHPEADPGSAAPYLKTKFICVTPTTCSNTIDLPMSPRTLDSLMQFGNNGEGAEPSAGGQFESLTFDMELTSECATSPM
T2 sequence (P42227 whole entry): as the sequence (P40763 whole entry) above, with E760D counted along it

SMILES: CC(C)CC(NC(=O)C(Cc1ccc(OP(=O)(O)O)cc1)NC(=O)c1ccc(C#N)cc1)C(=O)O (stereo not shown) [ISS 610]
- Stat3 activation in breast carcinoma cells (EMSA) (Stat3 [1]): time-dependent reduction of Stat3 activation
- Stat3 activation in human non-small cell lung carcinoma cells (EMSA) (Stat3 [1]): time-dependent reduction of Stat3 activation
- Stat3 activation in Src-transformed fibroblasts (EMSA) (Stat3 [2]): time-dependent reduction of Stat3 activation
- effect on STAT dimers in mixed Stat1:Stat1 and Stat3:Stat3 lysates [3]: appearance of an additional intermediate band representing Stat1:Stat3 heterodimers
- induction of the Stat3-independent luciferase reporter pRLSRE [4]: no effect
- transcriptional induction of the Stat3-dependent luciferase reporter pLucTKS3 [5]: significant suppression
- percent of apoptotic cells (NIH3T3/v-Src [6]; NIH3T3/v-Src, 1 mM, Apo-BrdU, flow cytometry): 21.4%
- incorporated BrdUTP compared to controls (in words) (NIH3T3/v-Src [6]; Src-transformed fibroblasts): dramatic increases in incorporated BrdUTP
- percent of apoptotic cells (NIH3T3 [7]): 0.3%
- cell proliferation (NIH3T3/v-Ras): no effect on cell proliferation
- cell proliferation (NIH3T3/v-Src [8]): significantly suppresses proliferation
- cell proliferation (NIH3T3 [9]): no effect on cell proliferation
- ligand (EGF)-induced STAT activation (Stat3 [10]): preferential inhibition of activation of Stat3
